Reference: PubChem BioAssay (NCI)
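How tested: cells in 96-well plates exposed to compound for 48 hours at five concentrations. At the GI50, growth is halved. The concentration for full growth arrest is given as TGI.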

Tests used:
Test in all cases: NCI-60 cell line screen, 48 h
[1] = test system: U251 CNS
[2] = test system: HCT-15 colon
[3] = test system: EKVX NSCLC
[4] = test system: SK-MEL-2 melanoma
[5] = test system: OVCAR-4 ovarian
[6] = test system: SN12C renal
[7] = test system: KM12 colon
[8] = test system: NCI-H23 lung
[9] = test system: A498 renal
[10] = test system: CCRF-CEM leukemia

Row | Compound | GI50 [1] | TGI [1] | GI50 [2] | TGI [2] | GI50 [3] | TGI [3] | GI50 [4] | TGI [4] | GI50 [5] | TGI [5] | GI50 [6] | TGI [6] | GI50 [7] | TGI [7] | GI50 [8] | TGI [8] | GI50 [9] | TGI [9] | TGI [10] | GI50 [10]
1 | N#Cc1cc(S(=O)(=O)Nc2nc3ccccc3o2)c(SCc2ccccc2)cc1Cl | 18.9 µM | 34 µM | 24.6 µM | 60.1 µM | 18.4 µM | 42.7 µM | 22.3 µM | 53.4 µM | 42.1 µM | > 100 µM | 24.7 µM | 57.9 µM | 20.3 µM | 40.7 µM | 26.1 µM | 54.3 µM | 21.3 µM | 43.7 µM |  | 
2 | c1ccc(OC2=NC3=S(S2)SC(Oc2ccccc2)=N3)cc1 |  | 26.8 µM |  | 43.3 µM |  | 48.3 µM |  | 29.8 µM |  |  |  | 40.8 µM |  | 34.4 µM |  | 49 µM |  | 75 µM | 28.9 µM | 
3 | CCC[CH2][Sn]1([CH2]CCC)[S]CC[N]1S(=O)(=O)c1ccc(C)cc1 | 0.885 µM | 2.1 µM | 1.51 µM | 2.93 µM |  |  | 1.39 µM | 2.73 µM | 1.85 µM | 3.27 µM |  |  | 2.02 µM | 3.59 µM | 0.638 µM | 1.94 µM |  |  |  | 
4 | CCOC(=O)C1=C(C)NC(c2ccco2)=C(C#N)C1c1cccc([N+](=O)[O-])c1 (stereo not given) | 0.0134 µM | 0.059 µM |  |  | 0.0263 µM | 88.6 µM | 0.0115 µM | 24.3 µM | 4.53 µM | 74.8 µM | 0.0465 µM | 19.7 µM | 0.035 µM | 16 µM | 0.0251 µM | 0.0947 µM |  |  | 32.4 µM | 0.0186 µM
5 | O=C1NC(c2ccccc2)C2(C(=O)O)CN(C3CC3)c3cc(N4CCNCC4)c(F)cc3C2N1 (stereo not given) | > 100 µM | > 100 µM | > 100 µM | > 100 µM | > 100 µM | > 100 µM | > 100 µM | > 100 µM | > 100 µM | > 100 µM | > 100 µM | > 100 µM | > 100 µM | > 100 µM | > 100 µM | > 100 µM |  |  | > 100 µM | > 100 µM
6 | CO[C@@]1(c2ccccc2)O[C@H]2OCCC2[C@H]1c1ccc(Cl)cc1 (stereo not given in full) |  | 94 µM |  | > 100 µM |  | 64.5 µM |  | 80.9 µM |  | 91.1 µM |  | > 100 µM |  | > 100 µM |  | 81.6 µM |  | 53.3 µM |  | 
7 | CN(C)CCCNc1nc2ccccc2c2[nH]c3ccccc3c12 | 0.679 µM | 2.59 µM | 0.266 µM | 4.31 µM | 1.38 µM | 4.75 µM | 6.69 µM | 38.8 µM |  |  | 0.639 µM | 2.26 µM | 0.721 µM | 2.28 µM | 0.752 µM | 1.64 µM | 6.42 µM | 13.4 µM | 1.38 µM | 0.206 µM
8 | Nc1ccc(/C=C/c2ccc3cccnc3c2)cc1 |  | > 100 µM |  | > 100 µM |  | > 100 µM |  |  |  |  |  | > 100 µM |  | > 100 µM |  | > 100 µM |  | > 100 µM | > 100 µM | 
9 | CCN(Cc1c(F)cccc1Cl)c1ccc(CO)c(Cl)c1 |  | 16.6 µM | 10 µM | 24.7 µM |  |  | 0.785 µM | 19.9 µM | 0.0648 µM | 0.661 µM | 11.9 µM | 25 µM | 11.8 µM | 25.8 µM | 13.9 µM | 33.8 µM | < 0.0146 µM | 0.0457 µM | 39 µM | 16.2 µM
10 | C=C1C(OC(C)=O)CC(OC(C)=O)C2(C)C(OC(C)=O)C(OC(C)=O)C3=C(C)C(OC(=O)/C=C/c4ccccc4)CC(C(OC(C)=O)C12)C3(C)C (stereo not given) |  | > 100 µM |  | > 100 µM |  |  |  | > 100 µM |  | > 100 µM |  | > 100 µM |  | > 100 µM |  |  |  | > 100 µM | > 100 µM | 
11 | COc1ccc2c(c1)CCc1c-2n[nH]c1-c1[nH]nc2c1CCc1cc(OC)ccc1-2 |  | > 100 µM |  | > 100 µM |  | > 100 µM |  | > 100 µM |  |  |  | > 100 µM |  | > 100 µM |  | > 100 µM |  | > 100 µM | > 100 µM | 
12 | COc1ccc2nc3cc(Cl)ccc3c(Nc3cc(CN4CCCC4)c(O)c(CN4CCCC4)c3)c2n1 | 2.21 µM | 11.5 µM | 1.18 µM | 10.6 µM | 2.34 µM | 9.68 µM | 1.73 µM | 3.26 µM | 1.12 µM | 4.72 µM | 1.35 µM | 10.8 µM | 1.66 µM | 10.9 µM | 1.72 µM | 3.88 µM |  |  | 4.03 µM | 1.12 µM
